pIC50: −log10 of the molar value.
Target: T1, EBP (Homo sapiens, UniProt Q15125)
T1 construct: HEK293T cells were utilized as the source of EBP enzyme; endogenous in cells; host or cells: HEK293T
Assay: EBP Functional Assay (EBP immunoaffinity LC-MS assay)
Assay type: biochemical
Details: EBP enzyme from HEK293T cells; 30 min with inhibitor, then zymosterol-d5, 37° C., 4 h; percent conversion to dehydrolathosterol-d5 by LC-APCI MRM MS
In short: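 HEK293T cells served as EBP source; enzyme preincubated 30 min with inhibitor dilutions, then zymosterol-d5 substrate added and incubated 4 h at 37° C. Sterols extracted and quantified by LC-APCI MRM MS; percent conversion to […] fit to 4-parameter logistic for IC50. Tasin-1 reference inhibitor.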

T1 sequence (Q15125 whole entry): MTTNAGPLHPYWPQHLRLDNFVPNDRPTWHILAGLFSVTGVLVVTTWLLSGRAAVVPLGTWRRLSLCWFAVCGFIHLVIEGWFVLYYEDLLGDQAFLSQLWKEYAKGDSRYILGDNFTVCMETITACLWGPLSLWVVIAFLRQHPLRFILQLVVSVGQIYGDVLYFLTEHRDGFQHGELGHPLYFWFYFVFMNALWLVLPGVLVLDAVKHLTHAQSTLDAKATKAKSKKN

Row | Compound | pIC50
1 | Cc1ccc(S(=O)(=O)N2CC3(CN(CC4(O)CCOCC4)C3)C2)c(C)c1 [Example 45, 4-((6-((2,4-Dimethylphenyl)sulfonyl)-2,6-diazaspiro[3.3]heptan-2-yl)methyl)tetrahydro-2H-pyran-4-ol] | 6.60 to 7.00
2 | Cc1nc(C(F)(F)F)ccc1S(=O)(=O)N1CC2(CN(CC3CC3C#N)C2)C1 (centres unmarked) [Example 171] | 5.40 to 6.60
3 | COC1CCC(N2CC3(C2)CN(S(=O)(=O)c2ccc(C(F)F)nc2C2CC2)C3)CC1 (single isomer, unassigned) [Example 118, 2-((2-cyclopropyl-6-(difluoromethyl)pyridin-3-yl)sulfonyl)-6-(4-methoxycyclohexyl)-2,6-diazaspiro[3.3]heptane] | 6.60 to 7.00
4 | O=S(=O)(c1ccc(C(F)F)nc1C1CC1)N1CC2(CN(C3CC4(COC4)C3)C2)C1 [Example 119, 2-((2-cyclopropyl-6-(difluoromethyl)pyridin-3-yl)sulfonyl)-6-(2-oxaspiro[3.3]heptan-6-yl)-2,6-diazaspiro[3.3]heptane] | 6.60 to 7.00
5 | Cn1nc(C(F)F)cc1S(=O)(=O)N1CC2(CN(C3CCOCC3)C2)C1 [Example 96, 2-((3-(difluoromethyl)-1-methyl-1H-pyrazol-5-yl)sulfonyl)-6-(tetrahydro-2H-pyran-4-yl)-2,6-diazaspiro[3.3]heptane] | 6.60 to 7.00
6 | O=S(=O)(c1ccc(Cl)nc1C(F)(F)F)N1CC2(CN(C3CCOCC3)C2)C1 [Example 213, 2-((6-chloro-2-(trifluoromethyl)pyridin-3-yl)sulfonyl)-6-(tetrahydro-2H-pyran-4-yl)-2,6-diazaspiro[3.3]heptane] | 6.60 to 7.00
7 | Cn1nc(C(F)(F)F)cc1S(=O)(=O)N1CC2(CN(CC3COCCO3)C2)C1 (racemic) [Example 215, rac-2-((1,4-dioxan-2-yl)methyl)-6-((1-methyl-3-(trifluoromethyl)-1H-pyrazol-5-yl)sulfonyl)-2,6-diazaspiro[3.3]heptane] | 5.40 to 6.60
8 | O=S(=O)(c1ccc(OC(F)F)cc1)N1CCOC2(CCN(C3CCOCC3)CC2)C1 [Example 5, 4-((4-(Difluoromethoxy)phenyl)sulfonyl)-9-(tetrahydro-2H-pyran-4-yl)-1-oxa-4,9-diazaspiro[5.5]undecane] | 6.60 to 7.00
9 | CC1(CN2CCC3(CC2)CN(S(=O)(=O)c2cc(F)cc(F)c2)CCO3)COC1 [Example 29, 4-((3,5-Difluorophenyl)sulfonyl)-9-((3-methyloxetan-3-yl)methyl)-1-oxa-4,9-diazaspiro[5.5]undecane] | 6.60 to 7.00
10 | COC(=O)C(C)(C)CCN1CC2(C1)CN(S(=O)(=O)c1ccc(C(F)(F)F)nc1C)C2 [Example 177] | 5.40 to 6.60
11 | CC1(O)CCC(N2CC3(C2)CN(S(=O)(=O)c2cnc(C(F)(F)F)cc2C2CC2)C3)CC1 (single isomer, unassigned) [Example 124, 4-(6-((4-cyclopropyl-6-(trifluoromethyl)pyridin-3-yl)sulfonyl)-2,6-diazaspiro[3.3]heptan-2-yl)-1-methylcyclohexan-1-ol] | 6.60 to 7.00
12 | O=S(=O)(c1cccnc1C(F)(F)F)N1CC2(CN(C3CCOCC3)C2)C1 [Example 162, 2-(tetrahydro-2H-pyran-4-yl)-6-((2-(trifluoromethyl)pyridin-3-yl)sulfonyl)-2,6-diazaspiro[3.3]heptane] | 5.40 to 6.60
13 | Cc1nc(C(F)(F)F)ccc1S(=O)(=O)N1CC2(CN(C(C)C3COC3)C2)C1 (single isomer, unassigned) [Example 158] | 5.40 to 6.60
14 | COCCC1(CN2CC3(C2)CN(S(=O)(=O)c2ccc(C(F)(F)F)nc2C)C3)CCC1 [Example 181] | 6.60 to 7.00
15 | Cc1nc(C(F)(F)F)ccc1S(=O)(=O)N1CC2(CN(C3CCCOC3)C2)C1 (centres unmarked) [Example 151] | 5.40 to 6.60

Now from value to molecule:

Row | pIC50 | Compound
16 | 6.60 to 7.00 | Cn1nc(C(F)(F)F)cc1S(=O)(=O)N1CC2(CN(CC3(C)CCOCC3)C2)C1 [Example 72, 2-((1-methyl-3-(trifluoromethyl)-1H-pyrazol-5-yl)sulfonyl)-6-((4-methyltetrahydro-2H-pyran-4-yl)methyl)-2,6-diazaspiro[3.3]heptane]
17 | > 7.00 | O=S(=O)(c1cc(F)cc(F)c1)N1CCO[C@]2(CCN(C3CCOCC3)C2)C1 (single isomer, unassigned) [Example 14]
18 | > 7.00 | Cc1nc(C(C)(F)F)ccc1S(=O)(=O)N1CC2(CN(CC3CC4(COC4)C3)C2)C1 [Example 114]
19 | > 7.00 | Cc1cc(OC(F)(F)F)ccc1S(=O)(=O)N1CC2(CCN(C3CCOCC3)C2)C1 [Example 58]
20 | 6.60 to 7.00 | Cc1nc(C(F)F)ccc1S(=O)(=O)N1CC2(CN(C3CCOCC3)C2)C1 [Example 90, 2-((6-(difluoromethyl)-2-methylpyridin-3-yl)sulfonyl)-6-(tetrahydro-2H-pyran-4-yl)-2,6-diazaspiro[3.3]heptane]
21 | 6.60 to 7.00 | O=S(=O)(c1ccc(OC(F)F)cc1)N1CCO[C@]2(CCN(C3CC4(COC4)C3)C2)C1 (single isomer, unassigned) [Example 27]
22 | > 7.00 | COc1ncc(Cl)cc1S(=O)(=O)N1CC2(CN(C3CCOCC3)C2)C1 [Example 99, 2-((5-chloro-2-methoxypyridin-3-yl)sulfonyl)-6-(tetrahydro-2H-pyran-4-yl)-2,6-diazaspiro[3.3]heptane]
23 | > 7.00 | CCSCCCN1CC2(C1)CN(S(=O)(=O)c1ccc(C(F)(F)F)nc1C)C2 [Example 183]
24 | > 7.00 | Cc1nc(C(C)(F)F)ccc1S(=O)(=O)N1CC2(CN(CC3CCOCC3)C2)C1 [Example 81]
25 | > 7.00 | Cc1nc(C(F)(F)F)ccc1S(=O)(=O)N1CC2(CN(CC34CCOC(C)(C3)C4)C2)C1 [Example 74, 2-((1-methyl-2-oxabicyclo[3.1.1]heptan-5-yl)methyl)-6-((2-methyl-6-(trifluoromethyl)pyridin-3-yl)sulfonyl)-2,6-diazaspiro[3.3]heptane]
26 | > 7.00 | Cn1nc(C(F)(F)F)cc1S(=O)(=O)N1CCC2(CN(C3CCOCC3)C2)C1 [Example 60, 6-((1-methyl-3-(Trifluoromethyl)-1H-pyrazol-5-yl)sulfonyl)-2-(tetrahydro-2H-pyran-4-yl)-2,6-diazaspiro[3.4]octane]
27 | > 7.00 | Cc1nc(C(F)(F)F)ccc1S(=O)(=O)N1CC2(CN(C[C@@H]3CC[C@H]4C[C@H]3CO4)C2)C1 (racemic) [Example 175]
28 | > 7.00 | Cc1ccc(S(=O)(=O)N2CCC3(CC2)CN(CC2(O)CCOCC2)C3)c(C)c1 [Example 34, 4-((7-((2,4-Dimethylphenyl)sulfonyl)-2,7-diazaspiro[3.5]nonan-2-yl)methyl)tetrahydro-2H-pyran-4-ol]
29 | > 7.00 | Cc1nc(C(F)(F)F)ccc1S(=O)(=O)N1CC2(CN(CCOC(C)(C)C)C2)C1 [Example 185]
30 | > 7.00 | O=S(=O)(c1cc(F)cc(F)c1)N1CCOC2(CCN(C3CCOCC3)C2)C1 (centres unmarked) [Example 13, 9-((3,5-Difluorophenyl)sulfonyl)-2-(tetrahydro-2H-pyran-4-yl)-6-oxa-2,9-diazaspiro[4.5]decane]
31 | > 7.00 | Cn1nc(C(F)(F)F)cc1S(=O)(=O)N1CC2(CN(CC3CCOC3)C2)C1 (racemic) [Example 197, rac-2-((1-Methyl-3-(trifluoromethyl)-1H-pyrazol-5-yl)sulfonyl)-6-((tetrahydrofuran-3-yl)methyl)-2,6-diazaspiro[3.3]heptane]
32 | > 7.00 | COc1ccc(S(=O)(=O)N2CCC3(CCN(C4CCOCC4)C3)CC2)c(C)n1 [Example 43]

— US20250171463A1 (BIOGEN MA INC., priority 2022, published 2025)
